How the values were obtained:
[1] = Clearance evaluation test; assay type: in vivo; conditions: rat, plasma, 1 umol/kg, rats, intravenous 1 μmol/kg
Description: Experimental Material and Method (1) Animals used: rats were used. (2) Rearing conditions: the rats were allowed to freely take solid feed and sterilized tap water. (3) Dose and grouping setting: a predetermined dose was intravenously administered. Groups were set as follows: Intravenous administration: 1 μmol/kg (n=2) (4) Preparation of dosing solution: the test sample was solubilized using a solvent of dimethyl sulfoxide/propylene glycol=1/1 and administered. (5) Administration method: the test sample was administered to the tail vein through a syringe with an injection needle. (6) Evaluation item: blood was collected over time, and the concentration of the compound of the present invention in plasma was measured using LC/MS/MS. (7) Statistical analysis: total body clearance (CLtot) and elimination half-life (t½) were calculated as to change in the concentration of the compound of the present invention in plasma by the moment analysis method.

[2] = test system: HIV mutant strain 2 (E92Q/E138T/G140S/Q148H); experiment: Resistance evaluation test (HeLa-CD4 reporter), mutant strain 2; assay type: cell-based; conditions: FC=EC50 of mutant strain/EC50 of wild strain, HeLa-CD4 cells
Experimental: (§1) Serial dilutions of a test sample were prepared in a96-well microplate (50 μL/well). 2.5×10^5 cells/mL of a HeLa-CD4 cell suspension was dispensed at 100 μL/well to the plate containing the test sample. Then, an HIV virus solution (wild strain and mutant strain) was dispensed at 50 μL/well. The plate was mixed with a plate mixer and cultured for 3 days in a CO2 incubator. The culture supernatant in each well was removed by suction. A cell lysis buffer in a reporter assay kit was dispensed at 100 μL/well, and the plate was frozen in a freezer (−80° C.). The plate frozen in a freezer was thawed at room temperature, then mixed with a plate mixer, and centrifuged at 1,200 rpm for 5 minutes. The supernatant of each well was dispensed at 20 μL/well to a 96-well microplate (BLACK). A chemiluminescent reagent in the reporter assay kit was dispensed at 100 μL/well and reacted at room temperature for approximately 1 hour. Then, luminescence intensity was measured using MicroBeta TRILUX. […] FC=EC50 of mutant strain/EC50 of wild strain (Results) FC for the mutant strain 1 (E138K/G140S/Q148H/N155H) and FC for the mutant strain 2 (E92Q/E138T/G140S/Q148H) are shown in the table.

[3] = test system: HIV mutant strain 1 (E138K/G140S/Q148H/N155H); experiment: Resistance evaluation test (HeLa-CD4 reporter), mutant strain 1; assay type: cell-based; conditions: FC=EC50 of mutant strain/EC50 of wild strain, HeLa-CD4 cells
Experimental: as §1

Metabolic stability test = assay type: in vitro ADME, human; design: key: % remaining vs amount at 0 min (=100%)
Experimental: Commercially available pooled human liver microsomes were reacted with the compound of the present invention for a certain time. A residual rate was calculated by the comparison between the reacted sample and an unreacted sample to evaluate the degree at which the compound of the present invention is metabolized in the liver. A reaction was performed (oxidative reaction) at 37° C. for 0 minutes or 30 minutes in the presence of 1 mmol/L NADPH in 0.2 mL of a buffer (50 mmol/L Tris-HCl pH 7.4, 150 mmol/L potassium chloride, 10 mmol/L magnesium chloride) containing 0.5 mg protein/mL of human liver microsomes. After the reaction, 50 μL of the reaction solution was added to 100 μL of a solution of methanol/acetonitrile=1/1 (v/v) and mixed, and the mixture was centrifuged at 3000 rpm for 15 minutes. The compound of the present invention in the centrifugation supernatant was quantified by LC/MS/MS or solid-phase extraction (SPE)/MS. The amount of the compound of the present invention remaining after the reaction was calculated with the amount of the compound at 0 minutes of the reaction defined as 100%.

HIV [4] = experiment: Anti-HIV activity (MT-4 cells, MTT); assay type: cell-based; conditions: Human immunodeficiency virus 1, MT4, 96 h, cultured 4 days
How it was run: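 MT-4 cells (2.5×10^5 cells/mL) mixed with serial dilutions of test sample and HIV, cultured 4 days in CO2 incubator. MTT added for 1 h, cells lysed, absorbance read at 560 nm and 690 nm.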

HIV [5] = experiment: Anti-HIV activity evaluation test in the presence of human serum protein (MT-4 cells); assay type: cell-based; conditions: PS=4×(EC50 in 25% human serum protein/EC50 in absence), 100% extrapolation value
Experimental: Serial dilutions of a test sample were prepared in a 96-well microplate (50 μL/well). A human serum protein solution (50% human serum protein concentration) was dispensed at 100 μL/well into a 96-well microplate containing the test sample, and allowed to be left still at room temperature for 1 hour. For the plate of serum absence, the culture medium was dispensed at 100 μL/well. 3.0×10^5/well of MT-4 cells and 3 μL/well of an HIV viral solution were mixed in an amount of the required number of wells, and the mixture was reacted at 37° C. for 1 hour. After the reaction, the cell suspension was centrifuged and the supernatant was discarded, and the infected cells were dispersed in the culture medium in an amount of the required number of wells at 50 μL/well, and dispensed at 50 μL/well to a 96-well microplate containing the test sample and human serum protein (final concentration of the human serum protein: 25%). The plate was mixed with a plate mixer and cultured for 4 days in a CO2 incubator. An MTT (3-(4,5-dimethylthiazol-2-yl)-2,5-diphenyltetrazolium bromide) solution was dispensed at 30 μL/well. The plate was reacted for 1 hour in a CO2 incubator. 150 μL of the supernatant was removed from each well so as not to take up the cells. […] The absorbance of the mixed plate was measured at two wavelengths of 560 nm and 690 nm using a microplate reader. […]

HIV [6] = experiment: Anti-HIV activity evaluation test using PBMC of healthy humans; assay type: cell-based; conditions: Human immunodeficiency virus 1, 96 h, read-out: 90% HIV inhibitory concentration (EC90); PHA-stimulated PBMC, 4 days, reverse transcriptase activity
Experimental: Serial dilutions of a test sample were prepared in a 96-well microplate (50 μL/well). 1.0×10^5/well of PBMC stimulated with Phytohemagglutinin (PHA) and an HIV viral solution were mixed in the required number of wells and the mixture was reacted at 37° C. for 1 hour. After the reaction, the cell suspension was centrifuged and the supernatant was discarded, and the infected cells were dispersed in the culture medium in the required number of wells at 150 μL/well. The obtained medium was dispensed at 150 μL/well to a 96-well microplate containing the test sample. The plate was mixed with a plate mixer and cultured for 4 days in a CO2 incubator. The reverse transcriptase activity in the culture medium was measured.

[7] = target: Voltage gated sodium channel (Nav 1.5 channel) (Homo sapiens, UniProt Q14524); conditions: pH 7.4
Chain of Voltage gated sodium channel (Nav 1.5 channel) (Q14524 whole entry): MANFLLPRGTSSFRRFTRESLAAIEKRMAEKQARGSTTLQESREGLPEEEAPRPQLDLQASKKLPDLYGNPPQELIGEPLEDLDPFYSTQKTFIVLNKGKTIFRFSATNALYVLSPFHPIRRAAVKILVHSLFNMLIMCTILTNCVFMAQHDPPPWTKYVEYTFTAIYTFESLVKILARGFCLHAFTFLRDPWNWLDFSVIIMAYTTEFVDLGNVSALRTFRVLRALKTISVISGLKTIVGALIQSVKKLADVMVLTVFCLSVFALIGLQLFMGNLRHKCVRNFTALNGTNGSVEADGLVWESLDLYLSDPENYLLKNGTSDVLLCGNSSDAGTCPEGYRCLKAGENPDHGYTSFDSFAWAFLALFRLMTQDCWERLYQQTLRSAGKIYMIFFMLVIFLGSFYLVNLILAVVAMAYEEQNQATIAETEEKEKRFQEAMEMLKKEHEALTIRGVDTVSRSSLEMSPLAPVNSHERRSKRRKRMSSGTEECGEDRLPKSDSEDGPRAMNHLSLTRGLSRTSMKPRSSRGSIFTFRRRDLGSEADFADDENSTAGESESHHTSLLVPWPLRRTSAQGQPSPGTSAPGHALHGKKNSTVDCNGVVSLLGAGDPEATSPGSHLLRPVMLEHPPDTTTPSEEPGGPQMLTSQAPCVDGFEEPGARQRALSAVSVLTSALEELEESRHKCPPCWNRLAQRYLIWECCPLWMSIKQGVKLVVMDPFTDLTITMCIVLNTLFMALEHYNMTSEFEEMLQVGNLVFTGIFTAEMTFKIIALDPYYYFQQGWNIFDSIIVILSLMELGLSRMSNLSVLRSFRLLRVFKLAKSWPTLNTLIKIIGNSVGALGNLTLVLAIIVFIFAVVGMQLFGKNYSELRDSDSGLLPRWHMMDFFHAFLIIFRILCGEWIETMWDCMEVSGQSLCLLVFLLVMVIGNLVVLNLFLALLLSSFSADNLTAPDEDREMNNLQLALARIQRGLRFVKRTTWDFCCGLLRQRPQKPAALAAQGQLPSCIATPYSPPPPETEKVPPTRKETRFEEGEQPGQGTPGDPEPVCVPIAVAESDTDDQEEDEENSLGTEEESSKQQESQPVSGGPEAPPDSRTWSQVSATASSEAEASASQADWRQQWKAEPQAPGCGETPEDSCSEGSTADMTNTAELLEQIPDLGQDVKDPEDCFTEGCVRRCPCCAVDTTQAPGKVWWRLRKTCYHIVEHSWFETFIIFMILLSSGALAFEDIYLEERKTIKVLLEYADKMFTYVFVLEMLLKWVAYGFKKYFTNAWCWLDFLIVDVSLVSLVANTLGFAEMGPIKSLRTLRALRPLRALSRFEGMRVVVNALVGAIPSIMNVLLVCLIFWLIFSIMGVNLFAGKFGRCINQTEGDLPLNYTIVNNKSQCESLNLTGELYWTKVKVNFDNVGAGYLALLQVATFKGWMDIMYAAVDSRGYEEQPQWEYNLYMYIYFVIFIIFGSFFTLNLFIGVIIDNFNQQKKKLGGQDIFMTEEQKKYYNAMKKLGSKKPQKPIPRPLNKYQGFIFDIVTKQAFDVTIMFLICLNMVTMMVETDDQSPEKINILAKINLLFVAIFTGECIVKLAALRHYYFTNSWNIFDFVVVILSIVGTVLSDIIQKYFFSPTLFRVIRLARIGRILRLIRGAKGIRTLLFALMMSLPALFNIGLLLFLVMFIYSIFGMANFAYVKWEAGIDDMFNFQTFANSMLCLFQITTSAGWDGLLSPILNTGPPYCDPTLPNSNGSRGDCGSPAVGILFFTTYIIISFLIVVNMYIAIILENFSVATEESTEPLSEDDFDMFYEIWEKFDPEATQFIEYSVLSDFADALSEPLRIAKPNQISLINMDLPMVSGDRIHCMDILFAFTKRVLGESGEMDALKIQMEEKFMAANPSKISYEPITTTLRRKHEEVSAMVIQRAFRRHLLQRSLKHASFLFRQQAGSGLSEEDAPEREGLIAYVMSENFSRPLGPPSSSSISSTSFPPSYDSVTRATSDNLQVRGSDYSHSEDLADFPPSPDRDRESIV
Description: For the purpose of assessing risk of arrhythmogenesis of the compound of the present invention, effects of the compound of the present invention on Na^+ current (INa), which plays an important role in the depolarization process of myocardium, was studied using HEK cells expressing Voltage gated sodium channel (Nav 1.5 channel) encoded by SCN5A gene. A cell is retained at a membrane potential of −100 mV by the whole cell patch clamp method using an automated patch clamp system (QPatch; Sophion Bioscience A/S), then INa induced by depolarization stimulation at −10 mV for 20 milliseconds, was recorded. […] From the obtained INa, an absolute value of the maximum peak current was measured based on the current value at the resting membrane potential using analysis software (QPatch Assay software; Sophion Bioscience A/S). The maximum peak current at the time of the application of the compound of the present invention with respect to the maximum peak current at the time of the application of the vehicle was further calculated to evaluate the influence of the compound of the present invention on INa.

[8] = compound 0.5 μmol/L, human liver microsomes 0.5 mg protein/mL, NADPH, 37° C., 30 minutes, amount at 0 minutes defined as 100%
[9] = human, 30 min, 0.5 μmol/L, pH 7.4

Structure (SMILES) | half-life ([1]; read-out: elimination half-life (t½) (converted)) [h] | clearance ([1]; read-out: total body clearance (CLtot)) [mL/min/kg] | FC mutant strain 2 [2] | FC mutant strain 1 [3] | residual rate (Metabolic stability test; [8]) | EC50 (HIV [4]) [nM] | Potency shift (PS) (HIV [5]) | EC90 (HIV [6]) [nM] | maximum peak current (INa) with compound with respect to vehicle [7] [%] | residual rate (Metabolic stability test; [9])
CN1C(=O)c2c(O)c(=O)c(C(=O)NCc3cccc(Cl)c3F)cn2N2C[C@@H]3CC[C@@H](C3)[C@@H]12 [II-028] | 26.7 | 0.102 | 15 | 9.9 | 74.2 | 1.4 |  |  |  | 
COC[C@@H]1CC[C@H]2N(C)C(=O)c3c(O)c(=O)c(C(=O)NCc4cccc(Cl)c4F)cn3N12 [II-031] |  |  | 6.9 | 10 | 86 | 0.34 | 364 | 0.73 | 79 | 
CC(C)N1C(=O)c2c(O)c(=O)c(C(=O)NCc3c(F)cc(F)cc3F)cn2N2[C@H]3COC[C@H]3C[C@@H]12 [II-048] |  |  | 34 | 17 |  | 0.55 |  |  |  | 73.3
CCN1C(=O)c2c(O)c(=O)c(C(=O)NCc3c(F)cc(F)cc3F)cn2N2C[C@@H](C)C[C@@H]12 [II-049] |  |  | 17 | 18 | 83.2 | 0.77 |  |  |  | 
CCN1C(=O)c2c(O)c(=O)c(C(=O)NCc3ccc(F)cc3F)cn2N2C[C@@H](C)C[C@@H]12 [II-051] |  |  | 21 | 19 | 96 | 0.74 | 236 | 3.3 |  | 
CCN1C(=O)c2c(O)c(=O)c(C(=O)NCc3cccc(Cl)c3F)cn2N2[C@H]3COC[C@H]3C[C@@H]12 [II-060] |  |  | 16 | 22 |  | 0.27 |  |  |  | 61.6
CN1C(=O)c2c(O)c(=O)c(C(=O)NCc3cccc(Cl)c3F)cn2N2C[C@@H]3CC[C@@H](O3)[C@@H]12 [II-066] |  |  | 15 | 25 | 97.7 | 0.17 |  |  |  | 
CCN1C(=O)c2c(O)c(=O)c(C(=O)NCc3ccc(F)cc3F)cn2N2CC[C@H](C)C[C@@H]12 [II-071] |  |  | 22 | 27 | 104 | 0.74 |  |  |  | 
CCN1C(=O)c2c(O)c(=O)c(C(=O)NCc3ccc(F)cc3)cn2N2CCCC[C@@H]12 [II-077] |  |  | 36 | 32 | 100 | 1.1 |  |  |  | 
CN1C(=O)c2c(O)c(=O)c(C(=O)NCc3c(F)cc(F)cc3F)cn2N2CCCC[C@@H]12 [II-087] |  |  | 14 | 38 | 105 | 1.4 |  |  |  | 
C[C@H]1CC[C@H]2N(C)C(=O)c3c(O)c(=O)c(C(=O)NCc4ccc(Cl)cc4F)cn3N2C1 [II-090] |  |  | 25 | 38 | 95.7 | 3.2 |  |  |  | 
CCN1C(=O)c2c(O)c(=O)c(C(=O)NCc3ccc(F)cc3F)cn2N2[C@H](COC)CC[C@@H]12 [II-093] |  |  | 38 | 39 | 97.5 | 0.32 |  |  |  | 
CN1C(=O)c2c(O)c(=O)c(C(=O)NCc3cccc(Cl)c3F)cn2N2CCCC[C@@]12C [II-099] |  |  | 26 | 44 | 88.6 | 0.33 |  |  |  | 
CCN1C(=O)c2c(O)c(=O)c(C(=O)NCc3ccc(F)cc3F)cn2N2C[C@@H]3CC[C@@H](O3)[C@@H]12 [II-102] |  |  | 45 | 47 | 101 | 0.61 |  |  |  | 
CN1C(=O)c2c(O)c(=O)c(C(=O)NCc3cccc(F)c3F)cn2N2CCCC[C@@H]12 [II-104] |  |  | 17 | 48 | 96.9 | 0.69 |  |  |  | 
CCN1C(=O)c2c(O)c(=O)c(C(=O)NCc3ccc(F)cc3F)cn2N2C[C@H](COC)C[C@@H]12 [II-105] |  |  | 62 | 48 | 84.3 | 0.58 |  |  |  | 
CN1C(=O)c2c(O)c(=O)c(C(=O)NCc3cccc(Cl)c3F)cn2N2CCOC[C@@H]12 [II-108] |  |  | 27 | 50 | 97.2 | 0.61 |  |  |  | 
CN1C(=O)c2c(O)c(=O)c(C(=O)NCc3cccc(Cl)c3F)cn2N2[C@H]3COC[C@H]3C[C@@H]12 [II-133] |  |  | 17 | 76 |  | 0.43 |  |  |  | 101
CCN1C(=O)c2c(O)c(=O)c(C(=O)NCc3ccc(F)cc3F)cn2N2[C@H]3COC[C@H]3C[C@@H]12 [II-136] |  |  | 110 | 78 |  | 0.65 |  |  |  | 77.2
CN1C(=O)c2c(O)c(=O)c(C(=O)NCc3cccc(Cl)c3F)cn2N2C[C@@H]3CCC[C@@H](C3)[C@@H]12 [II-153] |  |  | 10 | 18 | 75.4 | 0.74 |  |  |  | 
CCN1C(=O)c2c(O)c(=O)c(C(=O)NCc3ccc(F)cc3F)cn2N2C[C@@H]3CCC[C@@H](O3)[C@@H]12 [II-156] |  |  | 16 | 26 | 98.6 | 0.33 |  |  |  | 
CCN1C(=O)c2c(O)c(=O)c(C(=O)NCc3ccc(F)nc3F)cn2N2C[C@@H]3CC[C@@H](O3)[C@@H]12 [II-157] |  |  | 25 | 36 | 105 | 2.2 |  |  |  | 

— patent publication US11649236B2, “Polycyclic carbamoylpyridone derivative” (Shionogi & Co., Ltd., priority 2018, dated 2023)
